In article PMC11780470 (ACS Omega, 2025) one finds IC50 data, which are given here for one molecule.

This test has as its target Indole amine 2,3-dioxygenase 1 (IDO1) (Homo sapiens, UniProt P14902). Briefly: IDO1 enzyme. It counts as biochemical.

Sequence of Indole amine 2,3-dioxygenase 1 (IDO1) (P14902 whole entry): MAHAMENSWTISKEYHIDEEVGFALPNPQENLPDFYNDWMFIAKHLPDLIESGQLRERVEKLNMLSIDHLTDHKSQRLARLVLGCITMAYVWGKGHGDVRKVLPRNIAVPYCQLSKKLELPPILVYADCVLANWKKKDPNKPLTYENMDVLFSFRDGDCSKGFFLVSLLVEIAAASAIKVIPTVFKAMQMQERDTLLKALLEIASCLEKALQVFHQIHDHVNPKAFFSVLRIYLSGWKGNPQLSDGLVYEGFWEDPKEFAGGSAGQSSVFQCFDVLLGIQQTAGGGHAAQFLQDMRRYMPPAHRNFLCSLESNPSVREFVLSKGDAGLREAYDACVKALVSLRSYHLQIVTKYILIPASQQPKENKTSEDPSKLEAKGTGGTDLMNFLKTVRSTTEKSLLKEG

In the case of `O=C1c2ccccc2-n2c1nc1ccccc1c2=O` [TRYP, indolo [2,1-b]quinazoline-6,12-dione], the IC50 was found to be 17.3 µM.

In general, IC50 refers to the concentration at which inhibition is half-maximal. High values mean weaker potency in that assay, low ones greater potency in that assay.
